One experiment has as its target BRD4-BD1 (Homo sapiens (Human), UniProt O60885). Nature of the experiment: BRD4 AlphaScreen Assay (Example A2), BRD4-BD1. Type of experiment: binding. How it is done:
(§1) BRD4-BD1 and BRD4-BD2 assays were conducted in white 384-well polystyrene plate in a final volume of 40 μL for BD1 and 60 μL for BD2. Inhibitors were first serially diluted in DMSO and added to the plate wells before the addition of other reaction components. […] The assays were carried out at room temperature in the assay buffer (50 mM Tris-HCl, pH 7.5, 0.01% Tween-20, 0.01% BSA, 5 mM DTT), containing 50 nM Biotin-labeled tetra-acetylated histone H4 peptide (H4Ac4) and BRD4-BD1 or BRD4-BD2 protein at concentration less than 1 nM. […] After plate sealing, the plate was incubated in the dark at room temperature for 75 min. before reading on a PHERAstar FS plate reader (BMG Labtech). IC50 determination was performed by fitting the curve of percent control activity versus the log of the inhibitor concentration using the GraphPad Prism 5.0 software.
A general note: Bead proximity is the source of the signal in Alpha formats.

The target in the next experiment is BRD4-BD2 (Homo sapiens (Human), UniProt O60885). Briefly: BRD4 AlphaScreen Assay (Example A2), BRD4-BD2. Format: binding. Here is the method:
as §1

The mark [1] stands for this setting: Assay A2, AlphaScreen, BRD4-BD1, read-out: BRD4 BD-1 enzyme IC50.
The mark [2] stands for this setting: Assay A2, AlphaScreen, BRD4-BD2, read-out: BRD4 BD-2 enzyme IC50.

For orientation: IC50 means the concentration that gives 50% inhibition.

Like-named read-outs stand apart in the source and are kept apart here.

As for `CNC(=O)C1Oc2c(-c3c(C)noc3C)ccc3[nH]c(=O)n(c23)C1c1ccccn1` (centres unmarked) [Example 76, 7-(3,5-dimethylisoxazol-4-yl)-N-methyl-2-oxo-4-pyridin-2-yl-1,2,4,5-tetrahydroimidazo[1,5,4-de][1,4]benzoxazine-5-carboxamide 2,2,2-trifluoroacetate], the IC50 on BRD4-BD1 (setting [1]) and on BRD4-BD2 (setting [2]) was 100 to 1000 nM in each case.

For `Cc1noc(C)c1-c1ccc2[nH]c(=O)n3c2c1OC(C(N)=O)C3c1ccccn1` (centres unmarked) [Example 77, 7-(3,5-dimethylisoxazol-4-yl)-2-oxo-4-pyridin-2-yl-1,2,4,5-tetrahydroimidazo[1,5,4-de][1,4]benzoxazine-5-carboxamide 2,2,2-trifluoroacetate], the half-inhibitory concentration (IC50) at BRD4-BD1 (setting [1]) and on BRD4-BD2 (setting [2]) was 100 to 1000 nM each time.

With `Cc1noc(C)c1-c1ccc2[nH]c(=O)n3c2c1OCC3c1cncc(F)c1` (centres unmarked) [Example 78, 7-(3,5-dimethylisoxazol-4-yl)-4-(5-fluoropyridin-3-yl)-4,5-dihydroimidazo[1,5,4-de][1,4]benzoxazin-2(1H)-one], the IC50 on BRD4-BD1 (setting [1]) and on BRD4-BD2 (setting [2]) was under 100 nM in each case.

For the compound `Cc1noc(C)c1-c1ccc2[nH]c(=O)n3c2c1OCC3C1CCCCN1S(C)(=O)=O` (centres unmarked) [Example 79, 7-(3,5-dimethylisoxazol-4-yl)-4-[1-(methylsulfonyl)piperidin-2-yl]-4,5-dihydroimidazo[1,5,4-de][1,4]benzoxazin-2(1H)-one], the half-maximal inhibitory concentration (IC50) against BRD4-BD1 and on BRD4-BD2 was 1000 to 10000 nM throughout.

In the case of `Cc1noc(C)c1-c1ccc2[nH]c(=O)n3c2c1OCC3C1CCCCN1C(=O)NC(C)C` (centres unmarked) [Example 80, 2-[7-(3,5-dimethylisoxazol-4-yl)-2-oxo-1,2,4,5-tetrahydroimidazo[1,5,4-de][1,4]benzoxazin-4-yl]-N-isopropylpiperidine-1-carboxamide], the half-maximal inhibitory concentration (IC50) at BRD4-BD1 (setting [1]) and at BRD4-BD2 (setting [2]) was 1000 to 10000 nM throughout.

Turning to `Cc1noc(C)c1-c1cc(-c2cnn(C)c2)c2[nH]c(=O)n3c2c1OC[C@@H]3c1ccccn1` [Example 81, (4S)-7-(3,5-dimethylisoxazol-4-yl)-9-(1-methyl-1H-pyrazol-4-yl)-4-pyridin-2-yl-4,5-dihydroimidazo[1,5,4-de][1,4]benzoxazin-2(1H)-one 2,2,2-trifluoroacetate], the values for the IC50 on BRD4-BD1 (setting [1]) and at BRD4-BD2 (setting [2]) were 100 to 1000 nM and under 100 nM, respectively.

For the compound `Cc1noc(C)c1-c1cc(-c2ccc(C(=O)N(C)C)nc2)c2[nH]c(=O)n3c2c1OC[C@@H]3c1ccccn1` [Example 82, 5-[(4S)-7-(3,5-dimethylisoxazol-4-yl)-2-oxo-4-pyridin-2-yl-1,2,4,5-tetrahydroimidazo[1,5,4-de][1,4]benzoxazin-9-yl]-N,N-dimethylpyridine-2-carboxamide 2,2,2-bis(trifluoroacetate)], the IC50 is 100 to 1000 nM at BRD4-BD1 (setting [1]) and under 100 nM on BRD4-BD2 (setting [2]).

As to `Cc1noc(C)c1-c1cc(C2=CCN(C(=O)OC(C)(C)C)CC2)c2[nH]c(=O)n3c2c1OC[C@@H]3c1ccccn1` [Example 83, tert-butyl 4-[(4S)-7-(3,5-dimethylisoxazol-4-yl)-2-oxo-4-pyridin-2-yl-1,2,4,5-tetrahydroimidazo[1,5,4-de][1,4]benzoxazin-9-yl]-3,6-dihydropyridine-1(2H)-carboxylate 2,2,2-trifluoroacetate], the IC50 at BRD4-BD1 (setting [1]) and on BRD4-BD2 (setting [2]) was under 100 nM each time.

Take `Cc1noc(C)c1-c1cc(-c2cncnc2)c2[nH]c(=O)n3c2c1OC[C@@H]3c1ccccn1` [Example 84, (4S)-7-(3,5-dimethylisoxazol-4-yl)-4-pyridin-2-yl-9-pyrimidin-5-yl-4,5-dihydroimidazo[1,5,4-de][1,4]benzoxazin-2(1H)-one 2,2,2-trifluoroacetate]: the figures for the IC50 at BRD4-BD1 (setting [1]) and on BRD4-BD2 (setting [2]) were 100 to 1000 nM and under 100 nM, respectively.

As for `Cc1noc(C)c1-c1cc(-c2ccnn2C)c2[nH]c(=O)n3c2c1OC[C@@H]3c1ccccn1` [Example 85, (4S)-7-(3,5-dimethylisoxazol-4-yl)-9-(1-methyl-1H-pyrazol-5-yl)-4-pyridin-2-yl-4,5-dihydroimidazo[1,5,4-de][1,4]benzoxazin-2(1H)-one 2,2,2-trifluoroacetate], the results for the concentration for half-maximal inhibition (IC50) on BRD4-BD1 (setting [1]) and at BRD4-BD2 (setting [2]) were 1000 to 10000 nM and 100 to 1000 nM, respectively.

The record behind these values is US9624241B2 (Incyte Corporation, priority 2013, dated 2017).
